In PubChem BioAssay (NCI) one finds TGI and GI50 data, which are given here for eleven compounds.

Some test systems named below: A549 NSCLC; CCRF-CEM leukemia; HOP-62 NSCLC; HT29 colon; M14 melanoma; OVCAR-3 ovarian; OVCAR-8 ovarian; RPMI-8226 leukemia; SNB-19 CNS; SW-620 colon.
Holding throughout (experiment): NCI-60 cell line screen, 48 h

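Five compound concentrations were applied to cells in 96-well plates for 48 hours; endpoints were derived by simple linear interpolation of the resulting dose-response curve. GI50 is the concentration that inhibits growth by half. TGI: total growth inhibition.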

For `Oc1cccc(/C=N/Nc2nnc(N/N=C/c3cccc(O)c3)c3ccccc23)c1`, the TGI with A549 NSCLC is 57.5 µM; in the experiment with CCRF-CEM leukemia, 88.3 µM; with HOP-62 NSCLC, 33 µM; with HT29 colon, above 100 µM; in the experiment with M14 melanoma, above 100 µM; in the experiment with OVCAR-3 ovarian, 35.8 µM. Further, the TGI is 18.1 µM in the experiment on OVCAR-8 ovarian, 92.2 µM with RPMI-8226 leukemia, above 100 µM with SNB-19 CNS and 56.8 µM in the experiment on SW-620 colon.

In the case of `O=[N+]([O-])c1ccc(/C=C/c2csnn2)cc1`, the TGI with A549 NSCLC, in the experiment on CCRF-CEM leukemia, in the experiment with HOP-62 NSCLC, with HT29 colon, in the experiment on M14 melanoma and with OVCAR-3 ovarian was above 100 µM in each case. In addition, the TGI in the experiment with OVCAR-8 ovarian, in the experiment on RPMI-8226 leukemia, with SNB-19 CNS and in the experiment with SW-620 colon was above 100 µM in each case.

Take `Cn1c2ccccc2c2c3[nH][nH]c(=O)c3c3c4ccccc4[nH]c3c21`: the GI50 in the experiment on A549 NSCLC is 3.22 µM; in the experiment on CCRF-CEM leukemia it was 2890 nM; with HOP-62 NSCLC, 3110 nM; in the experiment on HT29 colon, 3.13 µM; with M14 melanoma, 3.05 µM; in the experiment on OVCAR-3 ovarian it was 1940 nM. Also, the GI50 was 2900 nM with OVCAR-8 ovarian, 2960 nM with RPMI-8226 leukemia, 3.05 µM in the experiment with SNB-19 CNS and 2400 nM in the experiment on SW-620 colon. Moreover, the TGI in the experiment with A549 NSCLC came to 16.8 µM; in the experiment with CCRF-CEM leukemia it was 10.2 µM; in the experiment with HOP-62 NSCLC, 10.4 µM; in the experiment on HT29 colon, 50.8 µM; with M14 melanoma, 10 µM; with OVCAR-3 ovarian, 7.8 µM. In addition, the TGI with OVCAR-8 ovarian was 28 µM; in the experiment on RPMI-8226 leukemia, 9.2 µM; with SNB-19 CNS it was above 100 µM; with SW-620 colon, 14.3 µM.

As to `O=C1Nc2ccccc2/C1=C\c1nc(C2CCN(S(=O)(=O)c3ccc(F)cc3)CC2)n2ccccc12`, the GI50 in the experiment on A549 NSCLC was above 100 µM; in the experiment with CCRF-CEM leukemia, above 100000 nM; in the experiment on HOP-62 NSCLC, 2060 nM; in the experiment with HT29 colon it was above 100 µM; in the experiment on M14 melanoma it was above 100 µM; in the experiment on OVCAR-3 ovarian it was 2720 nM. The GI50 in the experiment on OVCAR-8 ovarian was 1390 nM; in the experiment on RPMI-8226 leukemia, above 100000 nM; with SNB-19 CNS it was 3.99 µM; in the experiment on SW-620 colon it was 85700 nM. In addition, the TGI with A549 NSCLC is above 100 µM; in the experiment with CCRF-CEM leukemia, above 100 µM; with HOP-62 NSCLC, 6.37 µM; with HT29 colon it was above 100 µM; in the experiment on M14 melanoma it was above 100 µM; in the experiment with OVCAR-3 ovarian, 11.1 µM. Further, the TGI is 6.77 µM in the experiment on OVCAR-8 ovarian, above 100 µM in the experiment on RPMI-8226 leukemia, 33.3 µM in the experiment on SNB-19 CNS and above 100 µM in the experiment on SW-620 colon.

Take `NC(=O)N/N=C(/Cc1nc2ccc(C(=O)c3ccccc3)cc2[nH]c1=O)C(=O)Nc1ccc(C(F)(F)F)cc1[N+](=O)[O-]`: the TGI with A549 NSCLC, in the experiment with CCRF-CEM leukemia, in the experiment on HOP-62 NSCLC, with HT29 colon, in the experiment with M14 melanoma and in the experiment on OVCAR-3 ovarian was above 100 µM in each case. Besides, the TGI with OVCAR-8 ovarian, with RPMI-8226 leukemia, in the experiment with SNB-19 CNS and in the experiment with SW-620 colon was above 100 µM throughout.

On to `NC(N)=Nc1nc2ccc([N+](=O)[O-])cc2[nH]1`, for which the TGI in the experiment on A549 NSCLC, with CCRF-CEM leukemia, with HOP-62 NSCLC, in the experiment on HT29 colon, with M14 melanoma and in the experiment with OVCAR-3 ovarian was above 100 µM throughout. The TGI with OVCAR-8 ovarian, in the experiment on RPMI-8226 leukemia, in the experiment on SNB-19 CNS and with SW-620 colon was above 100 µM each time.

Turning to `Oc1ccc(CCNCc2cc3c(cc2Br)OCO3)cc1`, the TGI in the experiment with A549 NSCLC, in the experiment with CCRF-CEM leukemia, with HOP-62 NSCLC, with HT29 colon, with M14 melanoma and with OVCAR-3 ovarian was above 100 µM throughout. The TGI in the experiment on OVCAR-8 ovarian, in the experiment on RPMI-8226 leukemia, in the experiment on SNB-19 CNS and in the experiment with SW-620 colon was above 100 µM throughout.

For `CCOC(=O)[C@H]1Nc2ccc([N+](=O)[O-])cc2C2c3ccccc3CC21` (stereo partly drawn), the TGI amounted to 91.2 µM in the experiment with A549 NSCLC; 43.8 µM with CCRF-CEM leukemia; 39 µM in the experiment with HOP-62 NSCLC; 35.4 µM in the experiment with HT29 colon; 34.3 µM with M14 melanoma; 23.1 µM with OVCAR-3 ovarian. Moreover, the TGI with OVCAR-8 ovarian was 56.1 µM; in the experiment with RPMI-8226 leukemia, above 100 µM; in the experiment with SNB-19 CNS, above 100 µM; in the experiment with SW-620 colon, 41.6 µM.

In the case of `O=S1(=O)CS(=O)(=O)OCCO1`, the GI50 with A549 NSCLC is above 82.6 µM; in the experiment with HOP-62 NSCLC it was above 85200 nM; in the experiment on M14 melanoma, above 78.5 µM; with OVCAR-8 ovarian, above 77700 nM. Also, the TGI in the experiment on A549 NSCLC stood at 186 µM; in the experiment with CCRF-CEM leukemia it was 252 µM; with HOP-62 NSCLC, 50.9 µM; with HT29 colon, 347 µM; in the experiment on M14 melanoma, 162 µM; in the experiment with OVCAR-3 ovarian, 87.5 µM. The TGI amounted to 235 µM with OVCAR-8 ovarian, 599 µM with RPMI-8226 leukemia, 324 µM in the experiment with SNB-19 CNS and 321 µM in the experiment with SW-620 colon.

Regarding `CC(CNCCCNCCNCCCNCO)[N+](=O)[O-]` (stereo not drawn), the TGI was 57 µM in the experiment with A549 NSCLC; 11.5 µM in the experiment with CCRF-CEM leukemia; above 100 µM in the experiment on HOP-62 NSCLC; 41.7 µM in the experiment with HT29 colon; 23.6 µM with M14 melanoma; 30.4 µM in the experiment with OVCAR-3 ovarian. Moreover, the TGI was 27.9 µM in the experiment with OVCAR-8 ovarian, 35 µM in the experiment on RPMI-8226 leukemia, above 100 µM with SNB-19 CNS and 12.2 µM in the experiment with SW-620 colon.

On to `C/C(=N\NC(=S)N1CC2CCC(CC2)C1)c1cccc(C)n1`, for which the GI50 in the experiment with A549 NSCLC is 0.248 µM; in the experiment with CCRF-CEM leukemia, 0.124 nM; in the experiment on HOP-62 NSCLC it was 397 nM; with HT29 colon, below 0.0001 µM; in the experiment with M14 melanoma, 0.477 µM; in the experiment with OVCAR-3 ovarian, 0.14 nM. For the same compound, the GI50 in the experiment with OVCAR-8 ovarian was 229 nM; in the experiment on RPMI-8226 leukemia, 160 nM; in the experiment on SNB-19 CNS, 0.26 µM; with SW-620 colon it was 383 nM. Further, the TGI came out at 12.9 µM with A549 NSCLC; 14.2 µM in the experiment on HOP-62 NSCLC; 11.4 µM in the experiment with HT29 colon; 5.55 µM in the experiment with M14 melanoma; 9.75 µM in the experiment with OVCAR-3 ovarian; 13 µM in the experiment on OVCAR-8 ovarian. Moreover, the TGI in the experiment with RPMI-8226 leukemia turned out to be 17.1 µM; in the experiment on SNB-19 CNS, 14.3 µM; in the experiment with SW-620 colon, 31.8 µM.
